How the values were obtained:
[1] = Genotoxicity in mouse L5178Y cells assessed as increase in forward mutation at thymidine kinase locus; type: toxicity, cell-based
[2] = AUC (0 to infinity) in Cynomolgus monkey at 10 mg/kg, po administered for 7 days by reverse phase chromatography; type: ADME, organism-based, Macaca fascicularis; details: in vivo, time 7 day
[3] = AUC in Cynomolgus monkey at 10 mg/kg, po administered for 7 days by reverse phase chromatography; type: ADME, organism-based, Macaca fascicularis; details: in vivo, time 7 day
[4] = Drug absorption in human Caco-2 cells; type: ADME, cell-based
[5] = Half life in Sprague-Dawley rat at 5 mg/kg, po by reverse phase chromatography; type: ADME, organism-based; details: in vivo
[6] = tested on: Hepatitis C virus; assay: Anti-viral activity against HCV genotype 1b infected in human Huh-luc cells; type: functional, organism-based, Hepacivirus hominis
[7] = Half life in Sprague-Dawley rat at 10 mg/kg, po by reverse phase chromatography; type: ADME, organism-based; details: in vivo
[8] = Half life in female mouse at 1 mg/kg, iv by reverse phase chromatography; type: ADME, organism-based; details: in vivo
[9] = Half life in Sprague-Dawley rat at 1 mg/kg, iv by reverse phase chromatography; type: ADME, organism-based; details: in vivo
[10] = Genotoxicity in mouse L5178Y cells assessed as increase in forward mutation at thymidine kinase locus measured after 4 hrs; type: toxicity, cell-based
[11] = Tmax in female mouse at 1 mg/kg, iv by reverse phase chromatography; type: ADME, organism-based; details: in vivo
[12] = AUC in Sprague-Dawley rat at 1 mg/kg, iv by reverse phase chromatography; type: ADME, organism-based; details: in vivo
[13] = Toxicity in Sprague-Dawley rat assessed as macroscopic examination at necroscopy at 250 mg/kg, po administered as single dose and measured after 14 days; type: organism-based; details: in vivo, 336 h, time 14 day
[14] = target: hERG potassium channel (KCNH2) (Homo sapiens, UniProt Q12809); assay: Inhibition of hERG potassium channel expressed in HEK cells at 100 uM relative to control; type: toxicity, cell-based; details: HEK cells expressing hERG
Sequence of hERG potassium channel (KCNH2) (Q12809 whole entry): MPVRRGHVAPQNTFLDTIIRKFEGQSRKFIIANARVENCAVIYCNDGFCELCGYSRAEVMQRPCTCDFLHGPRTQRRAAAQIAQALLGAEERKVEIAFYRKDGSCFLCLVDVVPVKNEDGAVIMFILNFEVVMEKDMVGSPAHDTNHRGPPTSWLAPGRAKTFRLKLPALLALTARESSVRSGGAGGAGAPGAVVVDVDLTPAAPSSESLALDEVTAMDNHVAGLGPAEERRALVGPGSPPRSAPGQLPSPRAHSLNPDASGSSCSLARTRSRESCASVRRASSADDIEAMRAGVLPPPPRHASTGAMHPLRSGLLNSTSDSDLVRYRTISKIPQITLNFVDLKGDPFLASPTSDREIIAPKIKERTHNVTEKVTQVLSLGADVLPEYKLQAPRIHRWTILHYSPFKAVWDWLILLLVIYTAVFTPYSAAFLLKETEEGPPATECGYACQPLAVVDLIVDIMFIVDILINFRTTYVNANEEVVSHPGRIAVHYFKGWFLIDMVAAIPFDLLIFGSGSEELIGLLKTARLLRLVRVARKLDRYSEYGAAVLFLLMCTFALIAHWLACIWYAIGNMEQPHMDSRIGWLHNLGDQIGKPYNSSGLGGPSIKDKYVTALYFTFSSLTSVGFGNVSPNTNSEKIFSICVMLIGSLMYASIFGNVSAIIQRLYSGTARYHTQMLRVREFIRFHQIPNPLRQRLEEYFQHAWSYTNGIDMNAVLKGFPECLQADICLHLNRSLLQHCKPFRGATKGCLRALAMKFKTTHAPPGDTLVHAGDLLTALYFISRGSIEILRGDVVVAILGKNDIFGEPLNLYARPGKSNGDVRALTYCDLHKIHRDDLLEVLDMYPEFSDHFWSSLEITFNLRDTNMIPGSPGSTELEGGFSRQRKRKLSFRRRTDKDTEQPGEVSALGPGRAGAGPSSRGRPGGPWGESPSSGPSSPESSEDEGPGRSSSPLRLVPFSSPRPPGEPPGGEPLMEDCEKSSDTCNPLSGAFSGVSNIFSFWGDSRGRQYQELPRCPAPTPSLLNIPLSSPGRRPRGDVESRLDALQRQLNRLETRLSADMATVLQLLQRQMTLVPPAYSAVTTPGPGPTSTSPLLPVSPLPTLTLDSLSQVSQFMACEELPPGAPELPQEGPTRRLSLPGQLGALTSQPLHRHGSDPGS

[15] = Drug metabolism in human Huh-luc/neo cells assessed as triphosphate metabolite formation at 10 uM measured after 24 hrs by HPLC-MS analysis; type: ADME, cell-based
[16] = Toxicity in Cynomolgus monkey assessed as emesis at 100 mg/kg, po administered twice a day; type: organism-based, Macaca fascicularis; details: in vivo
[17] = Volume of distribution in female mouse at 1 mg/kg, iv by reverse phase chromatography; type: ADME, organism-based; details: in vivo
[18] = Toxicity in dog assessed as effect on […] function at 1 to 5 mg/kg, po administered for 3 hr post dose by electrocardiogram analysis; type: organism-based, Canis lupus familiaris; details: in vivo, dose 1-5 mg/kg
[19] = Metabolic stability in rat liver microsome assessed as half life in presence of NADPH; type: ADME; details: liver microsomes
[20] = Toxicity in Cynomolgus monkey assessed as emesis at 250 to 500 mg/kg, po administered as single dose; type: organism-based, Macaca fascicularis; details: in vivo, dose 250-500 mg/kg
[21] = Cmax in Sprague-Dawley rat at 10 mg/kg, po by reverse phase chromatography; type: ADME, organism-based; details: in vivo
[22] = AUC in Cynomolgus monkey at 1 mg/kg, iv by reverse phase chromatography; type: ADME, organism-based, Macaca fascicularis; details: in vivo
[23] = Cmax in Sprague-Dawley rat at 5 mg/kg, po by reverse phase chromatography; type: ADME, organism-based; details: in vivo
[24] = AUC (0 to infinity) in Sprague-Dawley rat at 5 mg/kg, po by reverse phase chromatography; type: ADME, organism-based; details: in vivo
[25] = Half life in Cynomolgus monkey at 1 mg/kg, iv by reverse phase chromatography; type: ADME, organism-based, Macaca fascicularis; details: in vivo
[26] = AUC in Sprague-Dawley rat at 10 mg/kg, po by reverse phase chromatography; type: ADME, organism-based; details: in vivo
[27] = Toxicity in cynomolgus monkey assessed as weight loss at 100 to 500 mg/kg, po administered as single dose; type: organism-based, Macaca fascicularis; details: in vivo, dose 100-500 mg/kg
[28] = Volume of distribution in Cynomolgus monkey at 1 mg/kg, iv by reverse phase chromatography; type: ADME, organism-based, Macaca fascicularis; details: in vivo
[29] = Genotoxicity in CD-1(ICR)BR mouse assessed as effect on bone marrow cells at 2000 mg/kg, po by micronucleus assay; type: toxicity, organism-based; details: in vivo
[30] = AUC (0 to infinity) in Cynomolgus monkey at 1 mg/kg, iv by reverse phase chromatography; type: ADME, organism-based, Macaca fascicularis; details: in vivo
[31] = Toxicity in rat assessed as effect on clinical observations at 1 to 9 mg/kg, po; type: organism-based; details: in vivo, dose 1-9 mg/kg
[32] = Cmax in Sprague-Dawley rat at 1 mg/kg, iv by reverse phase chromatography; type: ADME, organism-based; details: in vivo
[33] = Metabolic stability in cryopreserved Non human primate hepatocyte assessed as half life in presence of NADPH; type: ADME, cell-based; details: cryopreserved hepatocytes
[34] = Genotoxicity in CD-1(ICR)BR mouse assessed as increase in polychromatic erythrocytes at 500 to 2000 mg/kg, po measured after 48 hrs by micronucleus assay; type: toxicity, organism-based; details: in vivo, dose 500-2000 mg/kg
[35] = Drug level in Sprague-Dawley rat liver assessed as triphosphate metabolite concentration at 2 mg/kg, iv measured after 1 hr in presence of ATP by LC-MS/MS analysis; type: ADME, organism-based; details: in vivo, read-out: Ct
[36] = Metabolic stability in cryopreserved human hepatocyte assessed as half life in presence of NADPH; type: ADME, cell-based; details: cryopreserved hepatocytes
[37] = tested on: Hepatitis C virus; assay: Anti-viral activity against HCV genotype 2a infected in 2aLucNeo-25 cells; type: functional, organism-based, Hepacivirus hominis
[38] = Toxicity in Sprague-Dawley rat assessed as macroscopic examination at necroscopy at 100 mg/kg, po administered as single dose and measured after 14 days; type: organism-based; details: in vivo, 336 h, time 14 day
[39] = Toxicity in Sprague-Dawley rat assessed as piloerection at 90 mg/kg, po administered as single dose and measured after 14 days; type: organism-based; details: in vivo, 336 h, time 14 day
[40] = AUC in Sprague-Dawley rat at 5 mg/kg, po by reverse phase chromatography; type: ADME, organism-based; details: in vivo
[41] = Tmax in female mouse at 5 mg/kg, po by reverse phase chromatography; type: ADME, organism-based; details: in vivo
[42] = Toxicity in Cynomolgus monkey assessed as emesis at 100 mg/kg, po administered as single dose; type: organism-based, Macaca fascicularis; details: in vivo
[43] = Metabolic stability in human liver microsome assessed as half life in presence of NADPH; type: ADME; details: liver microsomes
[44] = AUC (0 to infinity) in Sprague-Dawley rat at 10 mg/kg, po by reverse phase chromatography; type: ADME, organism-based; details: in vivo
[45] = Toxicity in Sprague-Dawley rat assessed as diarrhea at 100 mg/kg, po administered as single dose and measured after 14 days; type: organism-based; details: in vivo, 336 h, time 14 day
[46] = Toxicity in rat assessed as effect on respiratory measures at 1 to 9 mg/kg, po; type: organism-based; details: in vivo, dose 1-9 mg/kg
[47] = Toxicity in Sprague-Dawley rat assessed as lethargy at 150 mg/kg, po administered as single dose and measured after 14 days; type: organism-based; details: in vivo, 336 h, time 14 day
[48] = Clearance in Sprague-Dawley rat at 1 mg/kg, iv by reverse phase chromatography; type: ADME, organism-based; details: in vivo
[49] = AUC (0 to infinity) in Sprague-Dawley rat at 1 mg/kg, iv by reverse phase chromatography; type: ADME, organism-based; details: in vivo
[50] = Toxicity in Cynomolgus monkey assessed as animal death at 100 mg/kg, po administered twice a day; type: organism-based, Macaca fascicularis; details: in vivo
[51] = Toxicity in Sprague-Dawley rat assessed as anogenital staining at 250 mg/kg, po administered as single dose and measured after 14 days; type: organism-based; details: in vivo, 336 h, time 14 day

Q: Which Activity [1] does the source give for `C[C@@]1(O)[C@H](O)[C@@H](CO)O[C@H]1c1coc2c(N)ncnc12` here?
A: Non-toxic

Q: What about the AUC(0-inf) [2] of the same compound?
A: 8010 ng·h/mL

Q: And the AUC at 168 h [3]?
A: 7260 ng·h/mL

Q: What about the Drug absorption [4] of the same compound?
A: Not_active

Q: And the half-life [5]?
A: 9.18 h

Q: And the EC50 [6]?
A: 4.7 µM

Q: What about the half-life [7] of the same compound?
A: 8.86 h

Q: And the half-life [8]?
A: 22.3 h

Q: And the half-life [9]?
A: 28.4 h

Q: What about the Activity [10] of the same compound?
A: Toxic

Q: What about the Tmax [11] of the same compound?
A: 4.98 min

Q: And the AUC [12]?
A: 699 ng·h/mL

Q: And the Activity [13]?
A: Toxic

Q: What about the inhibition at 100 µM [14] of the same compound?
A: 1.3%

Q: What about the Drug metabolism [15] of the same compound?
A: metabolite_detected

Q: What about the Activity [16] of the same compound?
A: Non-toxic

Q: And the Vd [17]?
A: 22.4 L/kg

Q: And the Activity [18]?
A: Non-toxic

Q: And the half-life [19]?
A: > 1.67 h

Q: What about the Activity [20] of the same compound?
A: Toxic

Q: What about the Cmax [21] of the same compound?
A: 1180 ng/mL

Q: What about the AUC [22] of the same compound?
A: 1930 ng·h/mL

Q: And the Cmax [23]?
A: 593 ng/mL

Q: And the AUC(0-inf) [24]?
A: 2150 ng·h/mL

Q: What about the half-life [25] of the same compound?
A: 24 h

Q: And the AUC [26]?
A: 4980 ng·h/mL

Q: What about the Activity [27] of the same compound?
A: Non-toxic

Q: And the Vd [28]?
A: 8.67 L/kg

Q: And the Activity [29]?
A: Toxic

Q: And the AUC(0-inf) [30]?
A: 2340 ng·h/mL

Q: What about the Activity [31] of the same compound?
A: Non-toxic

Q: What about the Cmax [32] of the same compound?
A: 1150 ng/mL

Q: And the half-life [33]?
A: > 1 h

Q: What about the Activity [34] of the same compound?
A: Toxic

Q: And the concentration [35]?
A: 22.6 µM

Q: What about the half-life [36] of the same compound?
A: > 1 h

Q: And the EC50 [37]?
A: > 50 µM

Q: What about the Activity [38] of the same compound?
A: Non-toxic

Q: What about the Activity [39] of the same compound?
A: Non-toxic

Q: What about the AUC [40] of the same compound?
A: 1920 ng·h/mL

Q: What about the Tmax [41] of the same compound?
A: 0.5 h

Q: And the Activity [42]?
A: Non-toxic

Q: And the half-life [43]?
A: > 1.67 h

Q: What about the AUC(0-inf) [44] of the same compound?
A: 5650 ng·h/mL

Q: What about the Activity [45] of the same compound?
A: Non-toxic

Q: What about the Activity [46] of the same compound?
A: Non-toxic

Q: And the Activity [47]?
A: Toxic

Q: And the clearance [48]?
A: 17.6 mL/min/kg

Q: And the AUC(0-inf) [49]?
A: 947 ng·h/mL

Q: And the Activity [50]?
A: Non-toxic

Q: What about the Activity [51] of the same compound?
A: Non-toxic

— ChEMBL document CHEMBL6087385, “Synthesis and biological evaluation of Ribo 7-N/O/S pyrimidine 9-deaza C-nucleoside analogs as new antiviral agents for inhibiting HCV RNA-dependent RNA polymerases” (Eur J Med Chem, 2024)
